Legend:
[1] = an = ratio of the nth substance listed; settings: for surface tension liquid-gas: Ring tensiometer; for electrical conductivity / viscosity / mass density: 101 kPa, Liquid; for electrical conductivity: Alternating current cell with electrodes; for viscosity: Capillary tube (Ostwald / Ubbelohde) method; for mass density: Vibrating tube method
[2] = refractive index (Na D-line) (dimensionless); an = ratio of the nth substance listed; settings: 101 kPa, Liquid, Standard Abbe refractometry

OCC(O)CO [glycerol] + O=C([O-])[O-].[K+].[K+]
Settings | electrical conductivity, [1] [S/m] | mass density, [1] [kg/m3] | refractive index, [2] | surface tension liquid-gas, [1] [mN/m] | viscosity, [1] [mPa·s]
293.15 K, a1 = 4 | 0.0008 | 1477.9 | 1.4922 | 50.6 | 28104
293.15 K, a1 = 5 | 0.0034 | 1447.2 | 1.491 | 64.4 | 18018
293.15 K, a1 = 6 | 0.0052 | 1423.6 | 1.4897 | 69.5 | 5500
303.15 K, a1 = 4 | 0.003 | 1472 | 1.4906 | 46.1 | 10100
303.15 K, a1 = 5 | 0.0082 | 1441.4 | 1.4894 | 59.1 | 8899
303.15 K, a1 = 6 | 0.0112 | 1417.8 | 1.4882 | 66.8 | 3500
313.15 K, a1 = 4 | 0.0069 | 1466.1 | 1.4888 | 45.2 | 3330
313.15 K, a1 = 5 | 0.0154 | 1435.5 | 1.488 | 56.7 | 3440
313.15 K, a1 = 6 | 0.0247 | 1411.9 | 1.4866 | 65.6 | 1710
323.15 K, a1 = 4 | 0.0162 | 1460.2 | 1.4862 | 44.4 | 1400
323.15 K, a1 = 5 | 0.0371 | 1429.6 | 1.4853 | 55.3 | 1418
323.15 K, a1 = 6 | 0.0393 | 1405.9 | 1.4845 | 64 | 767
333.15 K, a1 = 4 | 0.0313 | 1454.1 | 1.4857 | 43.4 | 663
333.15 K, a1 = 5 | 0.076 | 1423.4 | 1.4839 | 54.7 | 646
333.15 K, a1 = 6 | 0.121 | 1399.8 | 1.4827 | 63 | 378
343.15 K, a1 = 4 | 0.0583 | 1448.1 | 1.4846 | 42.6 | 323
343.15 K, a1 = 5 | 0.139 | 1417.5 | 1.4818 | 53.7 | 323
343.15 K, a1 = 6 | 0.163 | 1393.8 | 1.4808 | 62.2 | 203
353.15 K, a1 = 4 | 0.204 | 1442.2 | 1.4839 | 41.6 | 200
353.15 K, a1 = 5 | 0.313 | 1411.4 | 1.4783 | 51.3 | 178
353.15 K, a1 = 6 | 0.341 | 1387.7 | 1.4789 | 61.5 | 115

O=C([O-])[O-].[K+].[K+] [potassium carbonate] + OCCO
Settings | electrical conductivity, [1] [S/m] | mass density, [1] [kg/m3] | refractive index, [2] | surface tension liquid-gas, [1] [mN/m] | viscosity, [1] [mPa·s]
293.15 K, a2 = 6 | 0.22 | 1338.8 | 1.4598 | 28.4 | 227
293.15 K, a2 = 7 | 0.238 | 1314 | 1.4565 | 28.3 | 149
293.15 K, a2 = 8 | 0.231 | 1295.5 | 1.457 | 27.8 | 117
303.15 K, a2 = 6 | 0.34 | 1332.1 | 1.4576 | 27.8 | 120
303.15 K, a2 = 7 | 0.425 | 1307.3 | 1.4548 | 27.7 | 81
303.15 K, a2 = 8 | 0.365 | 1288.8 | 1.4556 | 27.3 | 66
313.15 K, a2 = 6 | 0.51 | 1325.3 | 1.455 | 27.3 | 69
313.15 K, a2 = 7 | 0.537 | 1300.6 | 1.4525 | 27.2 | 49
313.15 K, a2 = 8 | 0.531 | 1282.1 | 1.4536 | 26.7 | 40
323.15 K, a2 = 6 | 0.78 | 1318.5 | 1.4533 | 26.8 | 42
323.15 K, a2 = 7 | 0.801 | 1293.8 | 1.4507 | 26.7 | 31
323.15 K, a2 = 8 | 0.73 | 1275.3 | 1.4513 | 26.1 | 26
333.15 K, a2 = 6 | 1.17 | 1311.7 | 1.4519 | 26.1 | 28
333.15 K, a2 = 7 | 1.18 | 1287 | 1.449 | 26 | 21
333.15 K, a2 = 8 | 1.04 | 1268.5 | 1.4496 | 25.5 | 18
343.15 K, a2 = 6 | 1.51 | 1304.9 | 1.4485 | 25.5 | 20
343.15 K, a2 = 7 | 1.53 | 1280.1 | 1.4459 | 25.3 | 15
343.15 K, a2 = 8 | 1.4 | 1261.7 | 1.4469 | 24.8 | 13

From the NIST ThermoML archive (doi:10.1016/j.tca.2013.10.028)
